According to PubChem BioAssay AID256 (DTP/NCI, 2004):
Several values for one entry are separate records, joined by “and”; a condition that tells them apart may be missing. Identical values can stand only once. Toxic doses and inconclusive results are not listed. Rule for the calls: active = survival T/C of 150% or more; inactive = T/C below 125% in these data. Residues, ends and D or L forms follow the SMILES beside them.

Test system: CD2F1 mice, L1210 leukemia ip, survival T/C
Experiment: NCI In Vivo Anticancer Drug Screen. Data for tumor model L1210 Leukemia (intraperitoneal) in CD2F1 (CDF1) mice
Details: higher = longer survival
Summary of the method: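 Read-out first: treated-group measurement over vehicle-control measurement, expressed as a ratio. Animals bore a transplanted tumor line and were dosed with compound or vehicle.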

[1] = endpoint: mean survival time, dose: 100.0 mg/kg/injection, schedule: Q01DX001 (ip), vehicle: saline with Tween-80
[2] = endpoint: mean survival time, dose: 200.0 mg/kg/injection, schedule: Q01DX001 (ip), vehicle: saline with Tween-80
[3] = endpoint: mean survival time, dose: 100.0 mg/kg/injection, schedule: Q04DX002 (ip), vehicle: saline with Tween-80
[4] = endpoint: mean survival time, dose: 200.0 mg/kg/injection, schedule: Q04DX002 (ip), vehicle: saline with Tween-80
[5] = endpoint: mean survival time, dose: 400.0 mg/kg/injection, schedule: Q04DX002 (ip), vehicle: saline with Tween-80
[6] = endpoint: mean survival time, dose: 100.0 mg/kg/injection, schedule: Q01DX009 (ip), vehicle: saline with Tween-80
[7] = endpoint: mean survival time, dose: 200.0 mg/kg/injection, schedule: Q01DX009 (ip), vehicle: saline with Tween-80
[8] = endpoint: mean survival time, dose: 400.0 mg/kg/injection, schedule: Q01DX001 (ip), vehicle: saline with Tween-80
[9] = endpoint: mean survival time, dose: 400.0 mg/kg/injection, schedule: Q01DX009 (ip), vehicle: saline with Tween-80
[10] = endpoint: mean survival time, dose: 50.0 mg/kg/injection, schedule: Q01DX009 (ip), vehicle: saline
[11] = endpoint: mean survival time, dose: 100.0 mg/kg/injection, schedule: Q04DX003 (ip), vehicle: saline with Tween-80
[12] = endpoint: mean survival time, dose: 200.0 mg/kg/injection, schedule: Q04DX003 (ip), vehicle: saline with Tween-80
[13] = endpoint: mean survival time, dose: 400.0 mg/kg/injection, schedule: Q04DX003 (ip), vehicle: saline with Tween-80
[14] = endpoint: mean survival time, dose: 25.0 mg/kg/injection, schedule: Q01DX009 (ip), vehicle: saline
[15] = endpoint: mean survival time, dose: 100.0 mg/kg/injection, schedule: Q04DX003 (ip), vehicle: saline
[16] = endpoint: mean survival time, dose: 200.0 mg/kg/injection, schedule: Q04DX003 (ip), vehicle: saline

Measured: T/C

O=CC(Br)C(Br)c1ccccc1 (stereo unspecified)
inactive: endpoint: mean survival time, dose: 6.25 mg/kg/injection, schedule: Q01DX009 (ip), vehicle: saline with Tween-80 98 % of control | endpoint: mean survival time, dose: 6.25 mg/kg/injection, schedule: Q04DX003 (ip), vehicle: saline with Tween-80 113 % of control | endpoint: mean survival time, dose: 12.5 mg/kg/injection, schedule: Q01DX009 (ip), vehicle: saline with Tween-80 98 % of control | endpoint: mean survival time, dose: 12.5 mg/kg/injection, schedule: Q04DX003 (ip), vehicle: saline with Tween-80 98 % of control | endpoint: mean survival time, dose: 25.0 mg/kg/injection, schedule: Q01DX009 (ip), vehicle: saline with Tween-80 104 % of control | endpoint: mean survival time, dose: 25.0 mg/kg/injection, schedule: Q04DX003 (ip), vehicle: saline with Tween-80 102 % of control and 104 % of control | endpoint: mean survival time, dose: 50.0 mg/kg/injection, schedule: Q01DX009 (ip), vehicle: other 111 % of control

CCCCN(Cc1ccccc1)CC(O)C[NH-].O=C(O)CC(=O)O.[Pt+2] (stereo unspecified)
inactive: endpoint: median survival time, dose: 10.0 mg/kg/injection, schedule: Q04DX003 (ip), vehicle: water 98 % of control | endpoint: median survival time, dose: 20.0 mg/kg/injection, schedule: Q04DX003 (ip), vehicle: water 105 % of control | endpoint: median survival time, dose: 27.25 mg/kg/injection, schedule: Q04DX003 (ip), vehicle: water 101 % of control | endpoint: median survival time, dose: 40.0 mg/kg/injection, schedule: Q04DX003 (ip), vehicle: water 109 % of control | endpoint: median survival time, dose: 54.5 mg/kg/injection, schedule: Q04DX003 (ip), vehicle: water 101 % of control | endpoint: median survival time, dose: 80.0 mg/kg/injection, schedule: Q04DX003 (ip), vehicle: water 105 % of control | endpoint: median survival time, dose: 109.0 mg/kg/injection, schedule: Q04DX003 (ip), vehicle: water 108 % of control

O=S1(=O)CC2(C1)CS(=O)(=O)C2
inactive: [1] 103 % of control | [2] 90 % of control

O=c1ccn(CC(O)c2cc3ccccc3[nH]2)c(=O)[nH]1 (stereo unspecified)
inactive: [3] 112 % of control | [4] 112 % of control | [5] 108 % of control

COC1OC2COC(c3ccccc3)OC2/C(=N/O)C1[n+]1ccccc1 (stereo unspecified)
inactive: endpoint: mean survival time, dose: 25.0 mg/kg/injection, schedule: Q01DX001 (ip), vehicle: saline with Tween-80 94 % of control | endpoint: mean survival time, dose: 50.0 mg/kg/injection, schedule: Q01DX001 (ip), vehicle: saline with Tween-80 107 % of control | [1] 98 % of control and 102 % of control

COCCNc1ccc([N+](=O)[O-])cc1[N+](=O)[O-]
inactive: [1] 92 % of control | [6] 95 % of control | [2] 92 % of control | [7] 93 % of control | [8] 96 % of control | [9] 91 % of control

Cc1cc([N+](=O)[O-])ccc1P(=O)(O)O
inactive: [10] 88 % of control

CC(C)(C)C1=C(N=[N+]=[N-])C(=O)C(C(C)(C)C)=C(N=[N+]=[N-])C1=O
inactive: endpoint: mean survival time, dose: 100.0 mg/kg/injection, schedule: Q01DX001 (ip), vehicle: other 104 % of control | endpoint: mean survival time, dose: 200.0 mg/kg/injection, schedule: Q01DX001 (ip), vehicle: other 104 % of control | endpoint: mean survival time, dose: 400.0 mg/kg/injection, schedule: Q01DX001 (ip), vehicle: other 101 % of control

C/C=C/C=C/c1cc2cc3c(c(O)c2c(=O)[nH]1)C1(CC3)C(O)=c2c(=O)c3c(=O)cc(OC)c(=O)c=3c(=O)c2=C1O (stereo unspecified)
inactive: endpoint: mean survival time, dose: 0.06 mg/kg/injection, schedule: Q01DX009 (ip), vehicle: DMSO 90 % of control and 93 % of control and 108 % of control | endpoint: mean survival time, dose: 0.06 mg/kg/injection, schedule: Q01DX009 (ip), vehicle: Klucel (hydroxypropylcellulose) (HPC) 97 % of control | endpoint: mean survival time, dose: 0.12 mg/kg/injection, schedule: Q01DX009 (ip), vehicle: DMSO 113 % of control and 107 % of control | endpoint: mean survival time, dose: 0.12 mg/kg/injection, schedule: Q01DX009 (ip), vehicle: Klucel (hydroxypropylcellulose) (HPC) 98 % of control | endpoint: mean survival time, dose: 0.25 mg/kg/injection, schedule: Q01DX009 (ip), vehicle: DMSO 118 % of control | endpoint: mean survival time, dose: 0.25 mg/kg/injection, schedule: Q01DX009 (ip), vehicle: Klucel (hydroxypropylcellulose) (HPC) 98 % of control | endpoint: mean survival time, dose: 0.5 mg/kg/injection, schedule: Q01DX009 (ip), vehicle: DMSO 94 % of control | endpoint: mean survival time, dose: 0.5 mg/kg/injection, schedule: Q01DX009 (ip), vehicle: Klucel (hydroxypropylcellulose) (HPC) 98 % of control | endpoint: mean survival time, dose: 1.0 mg/kg/injection, schedule: Q01DX009 (ip), vehicle: Klucel (hydroxypropylcellulose) (HPC) 98 % of control | endpoint: mean survival time, dose: 2.0 mg/kg/injection, schedule: Q01DX009 (ip), vehicle: Klucel (hydroxypropylcellulose) (HPC) 104 % of control | endpoint: median survival time, dose: 0.03 mg/kg/injection, schedule: Q01DX009 (ip), vehicle: DMSO 89 % of control

C/C=C1/CN2[C@H]3C[C@@]45c6ccccc6N[C@@H]4[C@@H]2C[C@H]1[C@@]3(C(=O)OC)[C@H]5O
inactive: [6] 91 % of control | [11] 95 % of control | [7] 95 % of control | [12] 100 % of control | [9] 91 % of control | [13] 103 % of control

CCOC(=O)Cc1cnc(SC)[nH]c1=O
inactive: endpoint: mean survival time, dose: 50.0 mg/kg/injection, schedule: Q04DX003 (ip), vehicle: Klucel (hydroxypropylcellulose) (HPC) 111 % of control | endpoint: mean survival time, dose: 100.0 mg/kg/injection, schedule: Q04DX003 (ip), vehicle: Klucel (hydroxypropylcellulose) (HPC) 106 % of control | endpoint: mean survival time, dose: 200.0 mg/kg/injection, schedule: Q04DX003 (ip), vehicle: Klucel (hydroxypropylcellulose) (HPC) 106 % of control | endpoint: mean survival time, dose: 600.0 mg/kg/injection, schedule: Q04DX003 (ip), vehicle: Klucel (hydroxypropylcellulose) (HPC) 100 % of control

CC1CCCN(N=Nc2ccc(Br)cc2-c2nc(N)c3cc(Br)ccc3n2)C1 (stereo unspecified)
inactive: endpoint: mean survival time, dose: 100.0 mg/kg/injection, schedule: Q01DX001 (ip), vehicle: Klucel (hydroxypropylcellulose) (HPC) 103 % of control | endpoint: mean survival time, dose: 400.0 mg/kg/injection, schedule: Q01DX001 (ip), vehicle: Klucel (hydroxypropylcellulose) (HPC) 90 % of control

CC(=O)Nc1ccc2c(c1)C(=O)c1cc(NC(C)=O)ccc1-2
inactive: [1] 98 % of control | [2] 111 % of control | [8] 98 % of control

NC(N)=NCCCC(N)C(=O)NC(CCC(=O)O)C(=O)O (stereo not drawn) (H-Arg-Glu-OH; configuration not given here)
inactive: [14] 91 % of control | [10] 94 % of control | endpoint: mean survival time, dose: 100.0 mg/kg/injection, schedule: Q01DX009 (ip), vehicle: saline 89 % of control | endpoint: mean survival time, dose: 200.0 mg/kg/injection, schedule: Q01DX009 (ip), vehicle: saline 89 % of control | endpoint: mean survival time, dose: 400.0 mg/kg/injection, schedule: Q01DX009 (ip), vehicle: saline 93 % of control

CC12CCCCC1=CC(=O)CC2 (stereo unspecified)
inactive: [6] 97 % of control | [3] 96 % of control | [7] 102 % of control | [4] 112 % of control | [5] 104 % of control

Cc1ccc(C)c(NC(=O)c2ccc(Cl)cc2)c1
inactive: [11] 97 % of control | [12] 97 % of control | [13] 92 % of control

CN1CCN(CCCN2CC3CC=CCC3C2)CC1 (stereo unspecified)
inactive: [15] 105 % of control | [16] 100 % of control

[O-][n+]1ccc(-c2ccccc2)nc1
inactive: endpoint: mean survival time, dose: 50.0 mg/kg/injection, schedule: Q04DX002 (ip), vehicle: saline with Tween-80 106 % of control | [3] 103 % of control | [4] 117 % of control

O=C1C(O)=C(c2ccccc2)C(=O)C(O)=C1c1ccccc1
inactive: endpoint: mean survival time, dose: 3.12 mg/kg/injection, schedule: Q01DX009 (ip), vehicle: saline 96 % of control | endpoint: mean survival time, dose: 6.25 mg/kg/injection, schedule: Q01DX009 (ip), vehicle: saline 95 % of control | endpoint: mean survival time, dose: 12.5 mg/kg/injection, schedule: Q01DX009 (ip), vehicle: saline 97 % of control | [14] 101 % of control | [10] 108 % of control

COC(=O)C1(C)CSCCC1=O (stereo unspecified)
inactive: [15] 107 % of control | [16] 96 % of control | endpoint: mean survival time, dose: 400.0 mg/kg/injection, schedule: Q04DX003 (ip), vehicle: saline 96 % of control

O=C1CC2C=CC1CC2 (stereo unspecified)
inactive: endpoint: mean survival time, dose: 100.0 mg/kg/injection, schedule: Q04DX003 (ip), vehicle: other 105 % of control | endpoint: mean survival time, dose: 200.0 mg/kg/injection, schedule: Q04DX003 (ip), vehicle: other 101 % of control | endpoint: mean survival time, dose: 400.0 mg/kg/injection, schedule: Q04DX003 (ip), vehicle: other 100 % of control

O=C(O)CSc1ccn(Cc2ccccc2)c1
inactive: [6] 94 % of control | [11] 106 % of control | [7] 88 % of control | [12] 98 % of control | [9] 88 % of control | [13] 98 % of control

CC(O)C1CCC2C3CCC4CC(O)CCC4(C)C3CCC12C (stereo unspecified)
inactive: [11] 95 % of control | [12] 96 % of control | [13] 101 % of control
